Ten compounds from ChEMBL document CHEMBL1143317, “Efficient synthesis and biological evaluation of 1,2,9-trisubstituted 1,9-dihydro-6H-purin-6-ones” (Bioorg Med Chem Lett, 2009) can be followed below.

The IC50 is the point on the concentration scale where inhibition reaches its midpoint. Lower therefore signals inhibition by little substance.

Holding throughout (type): functional, cell-based
One assay relates to HepG2. As to the kind of experiment: Cytotoxicity against human HepG2 cells after 72 hrs by MTT assay. The settings on record: HepG2, 72 h.
Another assay concerns OVCAR-3. As to the kind of experiment: Cytotoxicity against human OVCAR-3 cells after 72 hrs by MTT assay. The following applies: OVCAR-3, 72 h. Background: Formazan colour is commonly taken as a measure of viable cells.
A further assay has as its system KB. Put plainly: Cytotoxicity against human KB cells after 72 hrs by MTT assay.

Consider `CCCCN(CCCC)c1nc2c(ncn2-c2ccccc2)c(=O)n1-c1ccccc1`, for which the figures for the half-maximal inhibitory concentration (IC50) with HepG2, with OVCAR-3 and with KB were 20.4 µM, 10 µM and 9.5 µM, respectively.

Regarding `CCCCCN(CCCCC)c1nc2c(ncn2-c2ccccc2)c(=O)n1-c1ccc(Cl)cc1`, the half-inhibitory concentration (IC50) with HepG2 was above 100 µM; with OVCAR-3 it was above 100 µM; in the assay with KB, 10.6 µM.

Consider `CNc1nc2c(ncn2-c2ccccc2)c(=O)n1-c1ccccc1`, for which the half-inhibitory concentration (IC50) in the assay with HepG2, in the assay with OVCAR-3 and in the assay on KB was above 100 µM each time.

As for `CCNc1nc2c(ncn2-c2ccccc2)c(=O)n1-c1ccccc1`, the IC50 with HepG2, in the assay on OVCAR-3 and in the assay with KB was above 100 µM in each case.

Turning to `CNc1nc2c(ncn2-c2ccccc2)c(=O)n1-c1ccc(Cl)cc1`, the IC50 with HepG2, with OVCAR-3 and with KB was above 100 µM each time.

For the compound `CCCCNc1nc2c(ncn2-c2ccccc2)c(=O)n1-c1ccc(Cl)cc1`, the IC50 in the assay with HepG2 was found to be 77.6 µM; in the assay on OVCAR-3 it was 94.8 µM; in the assay with KB, 37.7 µM.

For `CC(C)N(c1nc2c(ncn2-c2ccccc2)c(=O)n1-c1ccccc1)C(C)C`, the IC50 in the assay on HepG2 was above 100 µM; in the assay with OVCAR-3, above 100 µM; in the assay on KB, 53.5 µM.

Turning to `CN(C)c1nc2c(ncn2-c2ccccc2)c(=O)n1-c1ccccc1`, the IC50 in the assay with HepG2 is above 100 µM; with OVCAR-3, above 100 µM; in the assay on KB it was 83.8 µM.

Turning to `O=c1c2ncn(-c3ccccc3)c2nc(NCc2ccccc2)n1-c1ccc(Cl)cc1`, the results for the IC50 with HepG2, in the assay with OVCAR-3 and with KB were 62.1 µM, 46.7 µM and 34.3 µM, respectively.

In the case of `O=c1c2ncn(-c3ccccc3)c2nc(N2CCCCC2)n1-c1ccc(Cl)cc1`, the concentration for half-maximal inhibition (IC50) with HepG2 was above 100 µM; with OVCAR-3, above 100 µM; in the assay on KB it was 72.8 µM.
